The text below walks through data of patent US20100311756A1, “METHODS FOR DELAYING THE PROGRESSION OF AT LEAST ONE OF CARDIAC HYPERTROPHY, CARDIAC REMODELING OR LEFT VENTRICULAR FUNCTION OR THE ONSET OF HEART FAILURE IN SUBJECTS IN NEED OF TREATMENT THEREOF” (TAKEDA PHARMACEUTICALS NORTH AMERICA, INC., priority 2009, published 2010).

For series [1], the system named is post-myocardial infarction rabbits. As to the kind of experiment: Chronic xanthine oxidase inhibition following myocardial infarction (permanent coronary artery ligation) in rabbits. The class given is in vivo. Particulars: for Heart Weight / Heart/Body Weight Ratio: Day 49; for EDV / EF (ejection fraction) / LVIDd / LVIDs / LVPWd / LVPWs / SF (shortening fraction): baseline (Day 0, pre-surgery, before dosing); for Ejection fraction (percent change from baseline) versus vehicle/control / Shortening fraction (percent change from baseline) versus vehicle/control: delayed treatment (from Day 22). An excerpt:
• Animals Male New Zealand white rabbits (1-2 kg; Clerco Research Farms, Cincinnati, Ohio, USA) were housed in separate cages in an environmentally controlled facility. The animals were subjected to circadian light-dark cycles, maintained on standard rabbit chow (2030C, Harlan Teklad, Madison, Wis., USA) and provided water ad libitum.
The procedures used in this study were reviewed and approved by the Institutional Animal Care and Use Committee (IACUC) of QTest Labs for compliance with regulations and current accepted practices. All applicable sections of the Final Rules of the Animal Welfare Act regulations (Section 9 CFR) and the Public Health Service Policy on Humane Care and Use of Laboratory Animals (OPRR, NIH, 1986) were followed. At the end of the study, all animals were humanely euthanized in accordance with accepted guidelines of the American Veterinary Medical Association (See, American Veterinary Medicine Association (AVMA), 2000 Report of the AVMA Panel on Euthanasia, The Journal of the American Veterinary Medical Association, 218(5):669-696 (2001)). • Drugs Febuxostat and allopurinol (Sigma-Aldrich, St. Louis, Mo., USA) were each formulated as a suspension in 0.5% methylcellulose (Sigma-Aldrich, St. Louis, Mo.) as the vehicle. […] Allopurinol was given orally at 60 mg/kg. […] The rabbits were anesthetized with an intramuscular injection of ketamine (35 mg/kg)/xylazine (5 mg/kg) and pre-surgery enrofloxacin (12 mg/kg). Isoflurane (1-2%) was given during the surgery as required to maintain a deep level of anesthesia and the animals were allowed to breathe 100% oxygen. A limb lead electrocardiogram (ECG) was obtained to monitor sinus rhythm, heart rate, and J-point deviation. The rabbit was placed in dorsal recumbency, and the sternum was exposed by blunt dissection and then incised with scissors. […] Myocardial ischemia was confirmed by regional cyanosis of the myocardial surface and ST-segment elevation on the ECG. The sternum was closed, leaving the pericardial sac as it was. The muscle layers, subcutaneous layer and skin were then closed. Ketofen (1 mg/kg) and buprenorphine (0.03 mg/kg/8 hour) were administered subcutaneously, and the rabbits were placed on a heating pad, covered with a towel, and observed continuously until awake. Post-operative medications given subcutaneously to the rabbits included enrofloxacin (12 mg/kg, b.i.d.), ketofen (0.03 mg/kg, b.i.d.), and buprenorphine ([…], t.i.d. to q.i.d.) for 1 to 3 days as needed. • Experimental Procedures Rabbits were surgically altered (Day 0) to produce MI-induced heart failure and assigned to one of four treatment groups: the vehicle/control group (n=8) received vehicle for 49 consecutive days (7 weeks), the febuxostat/early treatment group (n=8) received febuxostat (10 mg/kg) for 49 consecutive days (7 weeks), the febuxostat/delayed treatment group (n=7) received vehicle for 21 consecutive days (3 weeks) and then febuxostat (10 mg/kg) starting on Day 22 (3 weeks post-surgery) for 28 consecutive days (4 weeks), and the allopurinol/delayed treatment group (n=8) received vehicle for 21 consecutive days and then allopurinol (60 mg/kg) starting on Day 22 (3 weeks post-surgery) for 28 consecutive days (4 weeks). All treatments were started on Day 1 (i.e. the day after surgery) and administered by oral gavage (2 mL/kg). The animals were fasted overnight prior to each day of dosing.
On Day 0 (baseline, pre-surgery), and on Days 21 (end of week 3) and 49 (end of week 7) at approximately one hour after dosing, the rabbits were sling restrained for ECG acquisition.

For series [2] the following is noted: Schumacher, Expert Opin. Invest. Drugs 2005; cited from earlier work.
[3] abbreviates: delayed treatment: vehicle 21 days then oral FBS 10 mg/kg/day or AL 60 mg/kg/day for 28 days.
Where [4] appears, read: early treatment: FBS 10 mg/kg/day oral for 49 days from 1 day after coronary occlusion.
The mark [5] stands for this setting: early treatment from one day after ligation, Day 21, still apparent on Day 49.

In the case of `Oc1ncnc2[nH]ncc12` [allopurinol], in series [1] (setting [3]), the “Heart Weight” value is 6.59 ± 0.30 g and the “Heart/Body Weight Ratio” value was 0.24 ± 0.01%. In series [1] (delayed treatment group), the EDV stood at 2.21 ± 0.21 mL, the “EF (ejection fraction)” value is reported as 74 ± 1.9%, the LVIDd is reported as 1.29 ± 0.05 cm and the LVIDs came to 0.77 ± 0.03 cm. Moreover, in series [1] (delayed treatment group), the LVPWd was 0.31 ± 0.02 cm, the LVPWs worked out at 0.46 ± 0.02 cm and the “SF (shortening fraction)” value is listed as 40 ± 1.7%. Moreover, in series [1] (Days 21 and 49), the “Ejection fraction (percent change from baseline) versus vehicle/control” value was “not significantly different” and the “Shortening fraction (percent change from baseline) versus vehicle/control” value is “not significantly different”. The Route of elimination result in series [2] is given as “mainly cleared by the kidneys”.

For `Cc1nc(-c2ccc(OCC(C)C)c(C#N)c2)sc1C(=O)O` [febuxostat, 2-[3-cyano-4-(2-methylpropoxy)phenyl]-4-methylthiazole-5-carboxylic acid], in series [1] (setting [3]), the “Heart Weight” value worked out at 6.65 ± 0.27 g and the “Heart/Body Weight Ratio” value is listed as 0.28 ± 0.01%. In series [1] (setting [4]), the “Heart Weight” value is recorded as “small trend toward a lower” and the “Heart/Body Weight Ratio” value is 0.25 ± 0.01%. Moreover, the “Heart Weight” value in series [1] (early treatment: FBS 10 mg/kg/day oral for 49 days from 1 day after coronary occlusion, listed as FBS) is 6.38 ± 0.19 g. In series [1] (delayed treatment group), the EDV came to 1.42 ± 0.13 mL, the “EF (ejection fraction)” value turned out to be 71 ± 1.7%, the LVIDd is on record as 1.11 ± 0.04 cm and the LVIDs worked out at 0.70 ± 0.02 cm. In series [1] (delayed treatment group), the LVPWd worked out at 0.32 ± 0.02 cm, the LVPWs is given as 0.44 ± 0.02 cm and the “SF (shortening fraction)” value came to 36 ± 1.2%. In addition, in series [1] (early treatment group), the EDV is listed as 1.94 ± 0.25 mL, the “EF (ejection fraction)” value came to 68 ± 1.8 %, the LVIDd came to 1.25 ± 0.04 cm and the LVIDs was determined as 0.82 ± 0.03 cm. Besides, in series [1] (early treatment group), the LVPWd was 0.26 ± 0.02 cm, the LVPWs amounted to 0.49 ± 0.02 cm and the “SF (shortening fraction)” value is given as 34 ± 1.4 %. In addition, in series [1] (Days 21 and 49), the “Ejection fraction (percent change from baseline) versus vehicle/control” value is “not significantly different” and the “Shortening fraction (percent change from baseline) versus vehicle/control” value is on record as “not significantly different”. Also, in series [1] (setting [5]), the “Reduction of ejection fraction (percent change from baseline) versus vehicle/control” value is on record as “significantly lessened” and the “Reduction of shortening fraction (percent change from baseline) versus vehicle/control” value is listed as “significantly lessened”. In addition, in series [1] (early treatment, Day 21), the “Increase in LVIDd versus vehicle/control” value was “less of an increase” and the “Increase in end diastolic volume versus vehicle/control” value was “less of an increase”. The “Increase in LVIDs versus vehicle/control” value in series [1] (early treatment, Day 21, reaching statistical significance) is “less of an increase”. Moreover, in series [1] (early treatment, Days 21 and 49), the “Left ventricular posterior wall dimension during diastole, change from baseline” value is given as “no reduction”. For the same compound, in series [2], the Route of elimination result was “hepatic metabolism”.
